In US20220024921A1, “1,3,4-OXADIAZOLONE COMPOUND AND PHARMACEUTICAL” (NIPPON SHINYAKU CO., LTD., priority 2018, published 2022):
Structures can show the parent of a compound that is named as a salt.

Experiments:
[1] = biological target: PIM1 transgenic cells (Ba/F3) (Homo sapiens, UniProt P11309); experiment: Proliferation inhibitory effect on PIM1 transgenic cells; type: cell-based, mouse; details: proliferation inhibition, 72 hours, Cell Counting Kit-8, read-out: PIM1 IC50
In short: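 Mouse Ba/F3 pro-B cells were retrovirally transduced with human PIM1 so that their proliferation depends on PIM1. Cells were treated with compound at 1–10000 nM final for 72 h, then read by CCK-8 (OD450−OD650). Inhibition was set against DMSO (0%) and no-cell blank (100%), and IC50 was obtained by two-parameter logistic regression.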

[2] = biological target: T1, PIM1 serine/threonine kinase (Homo sapiens, UniProt P11309); experiment: PIM1 serine/threonine kinase inhibitory effect; type: biochemical; details: PIM1 serine/threonine kinase activity; ATP 40 μM; 30° C., 30 minutes
T1 construct: purchased Carna Bioscience, Inc
T1 sequence (P11309 whole entry): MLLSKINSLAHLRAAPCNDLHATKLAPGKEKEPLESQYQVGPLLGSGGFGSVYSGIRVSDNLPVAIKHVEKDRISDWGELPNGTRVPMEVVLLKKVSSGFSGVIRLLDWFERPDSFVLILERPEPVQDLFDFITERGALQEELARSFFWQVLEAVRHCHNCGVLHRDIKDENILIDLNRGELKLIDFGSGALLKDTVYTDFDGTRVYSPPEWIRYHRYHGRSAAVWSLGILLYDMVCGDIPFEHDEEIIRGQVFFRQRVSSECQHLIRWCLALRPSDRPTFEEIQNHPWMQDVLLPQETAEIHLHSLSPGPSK
In short: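 Compounds were tested in duplicate from 0.01 to 10000 nM final against PIM1 kinase (0.15 μg/ml). The reaction ran for 30 minutes at 30° C with 40 μM ATP and 0.5 μM biotin-tagged substrate at pH 7.0. Phosphorylation was read by time-resolved FRET (OD665/OD620) after 1 h; IC50 by non-linear fit.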

PIM1 transgenic cells (Ba/F3), sequence (P11309 whole entry, stated change not applied): as the sequence (P11309 whole entry) above

| Structure (SMILES) | GI50 [1] [nM] | IC50 [2] [nM] |
| --- | --- | --- |
| CCc1c(F)cc(-c2n[nH]c(=O)o2)cc1N[C@@H](C)[C@H]1CC[C@H](N)CC1 [Example 231, 5-[3-({(1S)-1-[(1r,4S)-4-aminocyclohexyl]ethyl}amino)-4-ethyl-5-fluorophenyl]-1,3,4-oxadiazol-2(3H)-one hydrochloride] | 37 | 3.4 |
| CC(Nc1cc(-c2n[nH]c(=O)o2)ccc1C(F)(F)F)C1(C)CCNCC1 (stereo not shown) [Example 115, 5-[3-{[1-(4-methylpiperidin-4-yl)ethyl]amino}-4-(trifluoromethyl)phenyl]-1,3,4-oxadiazol-2(3H)-one] | 100 | 12 |
| C[C@H](Nc1cc(-c2n[nH]c(=O)o2)cc(Br)c1Cl)[C@H]1C[C@@H](N)C1 [Example 182, 5-[3-({(1S)-1-[(1s,3R)-3-aminocyclobutyl]ethyl}amino)-5-bromo-4-chlorophenyl]-1,3,4-oxadiazol-2(3H)-one hydrochloride] | 45 | 1.7 |
| C[C@H](Nc1cc(-c2n[nH]c(=O)o2)ccc1C(F)(F)F)[C@@H]1CC[C@H](N)C1 [Example 200, 5-[3-({(1S)-1-[(1R,3S)-3-aminocyclopentyl]ethyl}amino)-4-(trifluoromethyl)phenyl]-1,3,4-oxadiazol-2(3H)-one hydrochloride] | 100 | 8.5 |
| O=c1[nH]nc(-c2ccc(C(F)(F)F)c(N[C@@H](CF)C3(F)CCNCC3)c2)o1 [Example 209, 5-[3-{[(1S)-2-fluoro-1-(4-fluoropiperidin-4-yl)ethyl]amino}-4-(trifluoromethyl)phenyl]-1,3,4-oxadiazol-2(3H)-one] | 100 | 5.7 |
| C[C@@H](Nc1cc(-c2n[nH]c(=O)o2)ccc1C(F)(F)F)[C@H]1CC[C@H](N)CC1 [Example 111, 5-[3-({(1R)-1-[(1r,4R)-4-aminocyclohexyl]ethyl}amino)-4-(trifluoromethyl)phenyl]-1,3,4-oxadiazol-2(3H)-one hydrochloride] | 140 | 6.4 |
| C[C@H](Nc1cc(-c2n[nH]c(=O)o2)cc(F)c1C(F)(F)F)C1(F)CCNCC1 [Example 159, 5-[3-fluoro-5-{[(1S)-1-(4-fluoropiperidin-4-yl)ethyl]amino}-4-(trifluoromethyl)phenyl]-1,3,4-oxadiazol-2(3H)-one hydrochloride] | 30 | 2.8 |
| C[C@H](Nc1cc(-c2n[nH]c(=O)o2)ccc1C#N)C1CCNCC1 [Example 85, 4-(5-oxo-4,5-dihydro-1,3,4-oxadiazol-2-yl)-2-{[(1S)-1-(piperidin-4-yl)ethyl]amino}benzonitrile hydrochloride] | 610 | 4.7 |
| NCCCCCCNc1cc(-c2n[nH]c(=O)o2)ccc1C(F)(F)F [Example 4, 5-{3-[(6-aminohexyl)amino]-4-(trifluoromethyl)phenyl}-1,3,4-oxadiazol-2(3H)-one] | 3000 | 50 |
| O=c1[nH]nc(-c2cc(NCC3(F)CCNCC3)c3cn[nH]c3c2)o1 [Example 116, 5-(4-{[(4-fluoropiperidin-4-yl)methyl]amino}-1H-indazol-6-yl)-1,3,4-oxadiazol-2(3H)-one hydrochloride] | 4200 | 4.3 |
| C[C@H](Nc1cc(-c2n[nH]c(=O)o2)ccc1C(F)(F)F)C1CCCNCC1 (stereo partly drawn) [Example 157, 5-[3-{[(1S)-1-(azepan-4-yl)ethyl]amino}-4-(trifluoromethyl)phenyl]-1,3,4-oxadiazol-2(3H)-one hydrochloride] | 65 | 3.3 |
| NCC1CCN(c2cc(-c3n[nH]c(=O)o3)ccc2Cl)CC1 [Example 6, 5-{3-[4-(aminomethyl)piperidin-1-yl]-4-chlorophenyl}-1,3,4-oxadiazol-2(3H)-one] | 3600 | 59 |
| C[C@H](Nc1cc(-c2n[nH]c(=O)o2)ccc1C(F)F)C1CCNCC1 [Example 90, 5-[4-(difluoromethyl)-3-{[(1S)-1-(piperidin-4-yl)ethyl]amino}phenyl]-1,3,4-oxadiazol-2(3H)-one] | 3800 | 21 |
| O=c1[nH]nc(-c2ccc(C(F)(F)F)c(NCC3C4CCC3CNC4)c2)o1 (stereo not shown) [Example 133, 5-[3-{[(3-azabicyclo[3.2.1]octan-8-yl)methyl]amino}-4-(trifluoromethyl)phenyl]-1,3,4-oxadiazol-2(3H)-one hydrochloride] | 200 | 8 |
| N[C@H]1CC[C@H](CCNc2cc(-c3n[nH]c(=O)o3)ccc2C(F)(F)F)CC1 [Example 117, 5-[3-({2-[(1r,4r)-4-aminocyclohexyl]ethyl}amino)-4-(trifluoromethyl)phenyl]-1,3,4-oxadiazol-2(3H)-one hydrochloride] | 1300 | 31 |
| CC[C@H]1CNCC[C@H]1[C@H](C)Nc1cc(-c2n[nH]c(=O)o2)cc(F)c1C(F)(F)F [Example 226, 5-[3-({(1S)-1-[(3R,4R)-3-ethylpiperidin-4-yl]ethyl}amino)-5-fluoro-4-(trifluoromethyl)phenyl]-1,3,4-oxadiazol-2(3H)-one] | 83 | 5.4 |
| O=c1[nH]nc(-c2ccc(C(F)(F)F)c(NC3CC34CCNCC4)c2)o1 (stereo not shown) [Example 42, 5-{3-[(6-azaspiro[2.5]octan-1-yl)amino]-4-(trifluoromethyl)phenyl}-1,3,4-oxadiazol-2(3H)-one hydrochloride] | 270 | 10 |
| O=c1[nH]nc(-c2ccc(C(F)(F)F)c(N[C@H]3CCC34CCNCC4)c2)o1 [Example 45, 5-[3-{[(1S)-7-azaspiro[3.5]nonan-1-yl]amino}-4-(trifluoromethyl)phenyl]-1,3,4-oxadiazol-2(3H)-one hydrochloride] | 390 | 20 |
| O=c1[nH]nc(-c2ccc(C(F)(F)F)c(NC[C@@H]3C[C@H]4CC[C@@H](C3)N4)c2)o1 [Example 135, 5-[3-({[(1R,3s,5S)-8-azabicyclo[3.2.1]octan-3-yl]methyl}amino)-4-(trifluoromethyl)phenyl]-1,3,4-oxadiazol-2(3H)-one hydrochloride] | 3500 | 29 |
| C[C@H](Nc1cc(-c2n[nH]c(=O)o2)cc([N+](=O)[O-])c1Cl)C1CCNCC1 [Example 91, 5-(4-chloro-3-nitro-5-{[(1S)-1-(piperidin-4-yl)ethyl]amino}phenyl)-1,3,4-oxadiazol-2(3H)-one hydrochloride] | 210 | 1.5 |
| NCCC1CCCN(c2cc(-c3n[nH]c(=O)o3)ccc2C(F)(F)F)C1 (stereo not shown) [Example 11, 5-{3-[3-(2-aminoethyl)piperidin-1-yl]-4-(trifluoromethyl)phenyl}-1,3,4-oxadiazol-2(3H)-one hydrochloride] | 330 | 13 |
| O=c1[nH]nc(-c2cc(F)c(C(F)(F)F)c(N[C@@H](CF)C3CCNCC3)c2)o1 [Example 160, 5-[3-fluoro-5-{[(1R)-2-fluoro-1-(piperidin-4-yl)ethyl]amino}-4-(trifluoromethyl)phenyl]-1,3,4-oxadiazol-2(3H)-one hydrochloride] | 40 | 1.2 |
| C[C@H](Nc1cc(-c2n[nH]c(=O)o2)ccc1Br)C1CCNCC1 [Example 78, 5-(4-bromo-3-{[(1S)-1-(piperidin-4-yl)ethyl]amino}phenyl)-1,3,4-oxadiazol-2(3H)-one dihydrochloride] | 170 | 3.3 |
